What was measured:
[1] = biological target: IDH1 R132H (Homo sapiens, UniProt O75874, R132H); test: IDH1 R132H enzymatic assay (NADPH depletion coupled to diaphorase/resazurin); format: biochemical
Protocol: (§1) Assays were conducted in a 1536-well black solid-bottom plate with a final assay volume of 9 μL.
Specifically, for IDH1 R132H, 3 μL of enzyme (4 mM β-ME, 0.0005 mg/mL IDH1 R132H, 150 mM NaCl, 20 mM Tris pH 7.5, 10 mM MgCl2, 0.05% BSA) were added to the plate, followed by the addition of 23 nL of test compound in DMSO. The plate was lidded and incubated at room temperature for 30 minutes at which time 3 μL of substrate were added (0.016 mM NADPH, 2 mM α-KG, 150 mM NaCl, 20 mM Tris pH 7.5, 10 mM MgCl2, 0.05% BSA). This reaction was incubated at room-temperature for 60 minutes at which time the detection mix was added (0.06 mg/mL diaphorase, 0.036 mM resazurin, 150 mM NaCl, 20 mM Tris pH 7.5, 10 mM MgCl2, 0.05% BSA). […]

[2] = biological target: IDH1 R132C (Homo sapiens, UniProt O75874, R132C); test: IDH1 R132C enzymatic assay (NADPH depletion coupled to diaphorase/resazurin); format: biochemical
Protocol: as §1
For IDH1 R132C, 3 μL of enzyme (0.00032 mg/mL IDH1 […], 10% glycerol, 50 mM potassium phosphate pH 6.5, 5 mM MgCl2, 0.03% BSA) were added to the plate, followed by the addition of 23 nL of test compound in DMSO. The plate was lidded and incubated at room temperature for 30 minutes at which time 3 μL of substrate were added (0.012 mM NADPH, 0.6 mM α-KG, 10% glycerol, 50 mM potassium phosphate pH 6.5, 5 mM MgCl2, 0.03% BSA). […]

[3] = enzymatic inhibition, IDH1 R132H
[4] = enzymatic inhibition, IDH1 R132C
[5] = IDH1 R132H enzymatic inhibition, IC50 class
[6] = IDH1 R132C enzymatic inhibition, IC50 class

Chain of IDH1 R132C (O75874 whole entry R132C): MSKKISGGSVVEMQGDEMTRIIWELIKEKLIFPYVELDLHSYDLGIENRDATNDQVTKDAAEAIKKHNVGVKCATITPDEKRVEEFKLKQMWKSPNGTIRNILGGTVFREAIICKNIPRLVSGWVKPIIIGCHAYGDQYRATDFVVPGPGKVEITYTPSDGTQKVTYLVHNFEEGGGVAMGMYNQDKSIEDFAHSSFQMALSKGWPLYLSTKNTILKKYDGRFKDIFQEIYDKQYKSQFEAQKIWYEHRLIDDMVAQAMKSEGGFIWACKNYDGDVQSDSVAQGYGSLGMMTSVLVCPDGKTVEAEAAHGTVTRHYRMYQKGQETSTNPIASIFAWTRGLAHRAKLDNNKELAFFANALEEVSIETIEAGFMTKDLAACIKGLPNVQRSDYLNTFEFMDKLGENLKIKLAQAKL
Chain of IDH1 R132H (O75874 whole entry R132H): as the sequence (O75874 whole entry R132C) above, with C132H counted along it

Structure (SMILES)	IC50 [1, 3]	IC50 [2, 4]	IC50 [1, 5]	IC50 [2, 6]
CCc1cccc(CC)c1-n1c(CC(C)C)c(C(=O)N2CCNCC2)cc(-c2nc(-c3ccc(Cl)cc3)c(C(=O)NC)s2)c1=O [Compound 454]	300 to 1000 nM	1000 to 5000 nM		
CCOc1ccc(Cl)cc1-n1c(C=C(C)C)c(C(=O)N2CCNCC2)cc(-c2nc(-c3ccc(C(F)F)cc3)cs2)c1=O [Compound 378]			< 300 nM	< 300 nM
COc1ncccc1-n1c(C=C(C)C)c(C(=O)N2CCNCC2)cc(-c2nc(-c3ccc(Cl)cc3)cs2)c1=O [Compound 614]	< 300 nM	< 300 nM		
CCc1cccc(CC)c1-n1c(C(C)C)c(C(=O)N2CCN[C@@H](C(=O)OC)C2)cc(-c2nc(-c3ccc(Cl)cc3)cs2)c1=O [Compound 222]			1000 to 5000 nM	< 300 nM
O=C1CCCc2c1cc(-c1nc(-c3ccc(Cl)cc3)cs1)c(=O)n2-c1cccc(CO)c1 [Compound 565]	5000 to 20000 nM	5000 to 20000 nM		
COc1ccc(OC)c(-n2c(C)ccc(-c3nc(-c4ccc(Cl)cc4)cs3)c2=O)c1 [Compound 62]			> 20000 nM	5000 to 20000 nM
CCc1cccc(CC)c1-n1c2c(cc(-c3nc(-c4ccc(F)cc4)cs3)c1=O)C(=O)CC(C)(C)C2 [Compound 148]			300 to 1000 nM	300 to 1000 nM
COc1ccccc1-n1c(C=C(C)C)c(C(=O)N2CCNCC2)cc(-c2nc(-c3ccc(Cl)cc3)cs2)c1=O [Compound 644]			< 300 nM	300 to 1000 nM
CCc1cccc(CC)c1-n1c2c(cc(-c3nc(-c4ccc(C(=O)O)cc4)cs3)c1=O)C(=O)CC(C)(C)C2 [Compound 162]			> 20000 nM	5000 to 20000 nM
Cn1nccc1-n1c2c(cc(-c3nc(-c4ccc(Cl)cc4)cs3)c1=O)C(=O)CC(C)(C)C2 [Compound 382]			5000 to 20000 nM	1000 to 5000 nM
CC(C)=Cc1c(C(=O)N2CCNCC2)cc(-c2nc(-c3ccc(Cl)cc3)cs2)c(=O)n1-c1ccccc1 [Compound 341]			300 to 1000 nM	1000 to 5000 nM
CCc1cccc(CC)c1-n1c(C(C)C)c(C(=O)N2CCNC(CO)C2)cc(-c2nc(-c3ccc(Cl)cc3)cs2)c1=O (centres unmarked) [Compound 84]			300 to 1000 nM	< 300 nM
CCc1cccc(CC)c1-n1c(CC(C)C)c(C(=O)N2CCNCC2)cc(-c2nc(-c3ccccc3)c(C)s2)c1=O [Compound 81]			< 300 nM	300 to 1000 nM
CCc1cccc(CC)c1-n1c2c(cc(C(=O)N(C)Cc3ccc(Cl)cc3)c1=O)C(=O)CC(C)(C)C2 [Compound 309]			5000 to 20000 nM	5000 to 20000 nM
CCc1cccc(CC)c1-n1c2c(cc(-c3nc(-c4cnc(C)nc4)c(C)s3)c1=O)C(=O)CC(C)(C)C2 [Compound 161]			5000 to 20000 nM	1000 to 5000 nM
CCc1cccc(CC)c1-n1c(CC(C)C)c(C(=O)N2CCNCC2)cc(-c2nc(-c3ccc(C)cc3)c(C)s2)c1=O [Compound 76]			< 300 nM	< 300 nM
CC(C)=Cc1c(C(=O)N2CCNCC2)cc(-c2nc(-c3ccc(Cl)cc3)cs2)c(=O)n1-c1ccccc1OC(C)C [Compound 399]			< 300 nM	< 300 nM
CCc1cccc(CC)c1-n1c(CC(C)C)c(C(=O)N2CCC(CO)CC2)cc(-c2nc(-c3ccc(Cl)cc3)cs2)c1=O [Compound 94]			1000 to 5000 nM	< 300 nM
CCc1cccc(CC)c1-n1c(C)c(C(=O)NCCCO)cc(-c2nc(-c3ccc(Cl)cc3)cs2)c1=O [Compound 262]			1000 to 5000 nM	300 to 1000 nM
CCc1cccc(CC)c1-n1c(CC(C)C)c(C(=O)N2CCNCC2)cc(-c2nc(Nc3ccc(Cl)cc3)c(C)s2)c1=O [Compound 412]	5000 to 20000 nM	5000 to 20000 nM		
O=C1CCCc2c1cc(-c1nc(-c3ccc(Cl)cc3)cs1)c(=O)n2-c1ccccc1CCO [Compound 590]	5000 to 20000 nM	5000 to 20000 nM		
CCc1cccc(CC)c1-n1c(CC(C)C)c(C(=O)O)cc(-c2nc(-c3ccc(Cl)cc3)cs2)c1=O [Compound 14]			1000 to 5000 nM	5000 to 20000 nM

Structure (SMILES)	IC50 [1, 3]	IC50 [2, 4]	IC50 [1, 5]	IC50 [2, 6]
CCc1cccc(CC)c1-n1c(C=C(C)C)c(C(=O)N2CCNC3(CC3)C2)cc(-c2nc(-c3ccc(C(F)(F)F)cc3)cs2)c1=O [Compound 324]			< 300 nM	< 300 nM
Cc1conc1-n1c2c(cc(-c3nc(-c4ccc(Cl)cc4)cs3)c1=O)C(=O)CC(C)(C)C2 [Compound 472]	1000 to 5000 nM	1000 to 5000 nM		
CCc1cccc(CC)c1-n1c(CC(C)C)c(C(=O)N2C[C@@H](C)N[C@@H](C)C2)cc(-c2nc(-c3ccc(Cl)cc3)cs2)c1=O [Compound 112]			300 to 1000 nM	< 300 nM
COc1c(C(=O)O)cccc1-n1c2c(cc(-c3nc(-c4ccc(Cl)cc4)cs3)c1=O)C(=O)CC(C)(C)C2 [Compound 174]			> 20000 nM	5000 to 20000 nM
CCc1cccc(CC)c1-n1c2c(cc(-c3nc(-c4cccc(C(F)(F)F)c4)cs3)c1=O)C(=O)CC(C)(C)C2 [Compound 228]			> 20000 nM	> 20000 nM
CCc1cccc(CC)c1-n1c(CC(C)C)c(C(=O)N2CCNCC2)cc(-c2nc(-c3ccc(Cl)cc3)co2)c1=O [Compound 340]			300 to 1000 nM	300 to 1000 nM
CCc1cccc(CC)c1-n1c(CC(C)C)c(C(=O)NC[C@H](NC(C)=O)C(=O)O)cc(-c2nc(-c3ccc(Cl)cc3)cs2)c1=O [Compound 140]			5000 to 20000 nM	5000 to 20000 nM
CCc1cccc(CC)c1-n1c(CC(C)C)c(C(=O)N2CCNCC2)cc(-c2nc(-c3ccc(C(F)(F)F)cc3)cs2)c1=O [Compound 654]			< 300 nM	< 300 nM
Cc1c(CO)cccc1-n1c2c(cc(-c3nc(-c4ccc(Cl)nc4)cs3)c1=O)C(=O)CCC2 [Compound 486]	5000 to 20000 nM	5000 to 20000 nM		
CCOCc1c(C(=O)N2CCNCC2)cc(-c2nc(-c3ccc(Cl)cc3)cs2)c(=O)n1-c1c(CC)cccc1CC [Compound 404]	< 300 nM	< 300 nM		
COc1ccc(C(F)(F)F)cc1-n1c(C=C(C)C)c(C(=O)N2CCNCC2)cc(-c2nc(-c3ccc(Cl)cc3)cs2)c1=O [Compound 383]			300 to 1000 nM	300 to 1000 nM
COc1cccc(CN2CCN(C)CC2)c1-n1c2c(cc(-c3nc(-c4ccc(Cl)cc4)cs3)c1=O)C(=O)CCC2 [Compound 411]	5000 to 20000 nM	5000 to 20000 nM		
COc1ccc(OC)c(-n2c3c(cc(-c4ccc(-c5ccccc5)cc4)c2=O)C(=O)CC(C)(C)C3)c1 [Compound 185]			> 20000 nM	> 20000 nM
CCc1cccc(CC)c1-n1c(C(C)C)c(C(=O)NC)cc(-c2nc(-c3ccc(Cl)cc3)cs2)c1=O [Compound 32]			300 to 1000 nM	300 to 1000 nM
CCc1cccc(CC)c1-n1c2c(cc(-c3nc(-c4ccccc4Cl)cs3)c1=O)C(=O)CC(C)(C)C2 [Compound 213]			1000 to 5000 nM	1000 to 5000 nM
CCc1cccc(CC)c1-n1c(CC(C)C)c(C(=O)N2CCNC(CO)C2)cc(-c2nc(-c3ccc(Cl)cc3)cs2)c1=O (centres unmarked) [Compound 201]			< 300 nM	< 300 nM
Cc1cccc(CN2CCN(C)CC2)c1-n1c2c(cc(-c3nc(-c4ccc(Cl)cc4)cs3)c1=O)C(=O)CCC2 [Compound 468]	5000 to 20000 nM	5000 to 20000 nM		
CN1CCN(Cc2ccc(-n3c4c(cc(-c5nc(-c6ccc(Cl)cc6)cs5)c3=O)C(=O)CC(C)(C)C4)cc2)CC1 [Compound 498]	1000 to 5000 nM	5000 to 20000 nM		
COc1ccc(F)cc1-n1c2c(cc(-c3nc(-c4ccc(Cl)cc4)cs3)c1=O)C(=O)CC(C)(C)C2 [Compound 669]			300 to 1000 nM	300 to 1000 nM
CCc1cccc(CC)c1-n1c2c(cc(-c3nc(-c4ccccc4C)cs3)c1=O)C(=O)CC(C)(C)C2 [Compound 173]			1000 to 5000 nM	1000 to 5000 nM
CCOc1ccc(F)cc1-n1c(C=C(C)C)c(C(=O)N2CCNCC2)cc(-c2nc(-c3ccc(Cl)cc3)cs2)c1=O [Compound 381]			< 300 nM	< 300 nM
